Assay results as given in the OligoGym collection.
HELM strings list units from the 5' end as sugar, base in round brackets, then linkage (d deoxyribose, r ribose, m 2'-O-methyl, p phosphodiester). Strings are as the collection lists them, not checked against the first reports. ss, as = sense and antisense strand; [lna] = locked nucleic acid (LNA); [una] = unlocked nucleic acid; [s4r] = 4'-thioribose; [fl2r] = 2'-fluoro

Conditions: siRNA
Also: test system not given here.

RNA1{r(U)p.r(C)p.m(U)p.r(A)p.r(C)p.r(A)p.r(C)p.r(C)p.r(G)p.r(C)p.r(G)p.r(C)p.r(C)p.r(C)p.r(C)p.r(C)p.r(C)p.r(U)p.r(C)p.r(T)p.r(T)}|RNA2{r(G)p.r(A)p.r(G)p.r(G)p.r(G)p.r(G)p.r(G)p.r(G)p.r(C)p.r(G)p.r(C)p.r(G)p.r(G)p.r(U)p.r(G)p.m(U)p.r(A)p.r(G)p.r(A)p.r(T)p.r(T)}$$$RNA1{StrandType:ss}|RNA2{StrandType:as}$
target mRNA knockdown: 79%

RNA1{r(A)p.r(G)p.r(C)p.m(C)p.r(A)p.m(C)p.r(A)p.r(U)p.r(U)p.r(U)p.r(C)p.m(U)p.r(A)p.r(G)p.r(G)p.r(A)p.r(G)p.r(A)p.r(U)p.r(T)p.r(T)}|RNA2{r(A)p.r(U)p.r(C)p.r(U)p.r(C)p.r(C)p.m(U)p.r(A)p.m(G)p.r(A)p.r(A)p.r(A)p.r(U)p.r(G)p.m(U)p.r(G)p.r(G)p.r(C)p.r(U)p.r(T)p.r(T)}$$$RNA1{StrandType:ss}|RNA2{StrandType:as}$
target mRNA knockdown: 26%

RNA1{r(A)p.r(A)p.r(G)p.r(G)p.r(A)p.r(C)p.r(C)p.[fl2r](U)p.r(A)p.r(G)p.r(A)p.r(G)p.r(G)p.r(A)p.r(G)p.r(U)p.[fl2r](C)p.r(A)p.r(C)p.r(T)p.r(T)}|RNA2{r(G)p.[fl2r](U)p.r(G)p.r(A)p.r(C)p.r(U)p.r(C)p.r(C)p.r(U)p.r(C)p.[fl2r](U)p.r(A)p.r(G)p.r(G)p.r(U)p.r(C)p.r(C)p.r(U)p.r(U)p.r(T)p.r(T)}$$$RNA1{StrandType:ss}|RNA2{StrandType:as}$
target mRNA knockdown: 87%

RNA1{[fl2r](A)p.r(G)p.[fl2r](C)p.r(C)p.[fl2r](C)p.r(A)p.[fl2r](G)p.r(A)p.[fl2r](U)p.r(A)p.[fl2r](G)p.r(C)p.[fl2r](U)p.r(C)p.[fl2r](U)p.r(U)p.[fl2r](C)p.r(A)p.[fl2r](G)p.r(T)p.r(T)}|RNA2{r(C)p.r(U)p.r(G)p.r(A)p.r(A)p.r(G)p.r(A)p.r(G)p.r(C)p.r(U)p.r(A)p.r(U)p.r(C)p.r(U)p.r(G)p.r(G)p.r(G)p.r(C)p.r(U)p.r(T)p.r(T)}$$$RNA1{StrandType:ss}|RNA2{StrandType:as}$
target mRNA knockdown: 35%

RNA1{r(A)p.r(G)p.r(A)p.r(A)p.r(G)p.r(G)p.r(A)p.m(C)p.m(U)p.r(A)p.m(C)p.m(U)p.r(A)p.r(A)p.m(C)p.m(C)p.m(U)p.m(C)p.m(C)p.r(T)p.r(T)}|RNA2{r(G)p.r(G)p.r(A)p.r(G)p.r(G)p.r(U)p.r(U)p.r(A)p.r(G)p.r(U)p.r(A)p.r(G)p.r(U)p.r(C)p.r(C)p.r(U)p.r(U)p.r(C)p.r(U)p.r(T)p.r(T)}$$$RNA1{StrandType:ss}|RNA2{StrandType:as}$
target mRNA knockdown: 80%

RNA1{r(A)p.m(U)p.r(G)p.r(G)p.r(G)p.r(A)p.r(G)p.r(A)p.r(A)p.r(G)p.m(U)p.r(A)p.r(G)p.r(U)p.r(C)p.r(C)p.r(C)p.r(C)p.r(C)p.r(T)p.r(T)}|RNA2{r(G)p.r(G)p.r(G)p.r(G)p.r(G)p.r(A)p.r(C)p.m(U)p.r(A)p.r(C)p.r(U)p.r(U)p.r(C)p.r(U)p.r(C)p.r(C)p.m(C)p.r(A)p.r(U)p.r(T)p.r(T)}$$$RNA1{StrandType:ss}|RNA2{StrandType:as}$
target mRNA knockdown: 82%

RNA1{r(G)p.r(G)p.r(G)p.r(A)p.r(G)p.r(G)p.r(A)p.r(U)p.[fl2r](G)p.r(A)p.r(C)p.[fl2r](A)p.r(A)p.r(A)p.r(G)p.r(A)p.r(A)p.r(G)p.r(C)p.r(T)p.r(T)}|RNA2{r(G)p.r(C)p.r(U)p.r(U)p.r(C)p.r(U)p.r(U)p.[fl2r](U)p.r(G)p.r(U)p.r(C)p.r(A)p.r(U)p.r(C)p.r(C)p.r(U)p.r(C)p.r(C)p.r(C)p.r(T)p.r(T)}$$$RNA1{StrandType:ss}|RNA2{StrandType:as}$
target mRNA knockdown: 84%

RNA1{r(A)p.r(U)p.r(C)p.r(U)p.r(G)p.r(A)p.r(A)p.r(G)p.r(A)p.r(A)p.r(G)p.r(G)p.r(A)p.r(G)p.r(A)p.r(A)p.r(A)p.r(A)p.r(A)p.d(T)p.d(T)}|RNA2{r(U)p.r(U)p.r(U)p.r(U)p.r(U)p.r(C)p.r(U)p.r(C)p.r(C)p.r(U)p.r(U)p.r(C)p.r(U)p.r(U)p.r(C)p.r(A)p.r(G)p.r(A)p.r(U)p.[lna](T)p.[lna](T)}$$$RNA1{StrandType:ss}|RNA2{StrandType:as}$
target mRNA knockdown: 93%

RNA1{r(U)p.r(U)p.r(U)p.[fl2r](C)p.[fl2r](C)p.[fl2r](C)p.[fl2r](C)p.[fl2r](C)p.r(A)p.r(G)p.r(G)p.r(U)p.r(A)p.r(A)p.[fl2r](C)p.r(G)p.r(A)p.r(U)p.r(U)p.r(T)p.r(T)}|RNA2{r(A)p.r(A)p.r(U)p.[fl2r](C)p.r(G)p.r(U)p.r(U)p.[fl2r](A)p.[fl2r](C)p.r(C)p.r(U)p.r(G)p.r(G)p.r(G)p.r(G)p.r(G)p.r(A)p.r(A)p.r(A)p.r(T)p.r(T)}$$$RNA1{StrandType:ss}|RNA2{StrandType:as}$
target mRNA knockdown: 68%

RNA1{r(C)p.r(G)p.r(U)p.r(A)p.r(C)p.r(G)p.r(C)p.r(G)p.r(G)p.r(A)p.r(A)p.r(U)p.r(A)p.[s4r](C)p.[s4r](U)p.[s4r](U)p.[s4r](C)p.[s4r](G)p.[s4r](A)p.r(T)p.r(T)}|RNA2{[s4r](U)p.[s4r](C)p.[s4r](G)p.[s4r](A)p.[s4r](A)p.[s4r](G)p.r(U)p.r(A)p.r(U)p.r(U)p.r(C)p.r(C)p.r(G)p.r(C)p.r(G)p.r(U)p.r(A)p.r(C)p.r(G)p.r(T)p.r(T)}$$$RNA1{StrandType:ss}|RNA2{StrandType:as}$
target mRNA knockdown: 10.9%

RNA1{r(A)p.r(G)p.r(A)p.r(A)p.r(A)p.r(C)p.r(G)p.m(C)p.r(A)p.r(G)p.m(U)p.r(A)p.r(A)p.r(U)p.r(C)p.r(C)p.r(G)p.r(G)p.r(A)p.r(T)p.r(T)}|RNA2{r(U)p.r(C)p.r(C)p.r(G)p.r(G)p.r(A)p.r(U)p.m(U)p.r(A)p.r(C)p.m(U)p.r(G)p.r(C)p.r(G)p.r(U)p.r(U)p.r(U)p.r(C)p.r(U)p.r(T)p.r(T)}$$$RNA1{StrandType:ss}|RNA2{StrandType:as}$
target mRNA knockdown: 81%

RNA1{r(U)p.r(U)p.r(C)p.[fl2r](U)p.r(A)p.r(A)p.r(C)p.r(C)p.r(G)p.r(G)p.r(G)p.[fl2r](C)p.r(A)p.r(G)p.r(C)p.r(U)p.r(U)p.r(C)p.r(U)p.r(T)p.r(T)}|RNA2{r(A)p.r(G)p.r(A)p.r(A)p.r(G)p.r(C)p.[fl2r](U)p.r(G)p.r(C)p.r(C)p.r(C)p.r(G)p.r(G)p.r(U)p.[fl2r](U)p.r(A)p.r(G)p.r(A)p.r(A)p.r(T)p.r(T)}$$$RNA1{StrandType:ss}|RNA2{StrandType:as}$
target mRNA knockdown: 71%

RNA1{r(A)p.r(A)p.r(C)p.r(C)p.r(C)p.r(A)p.r(C)p.r(C)p.r(A)p.r(C)p.r(A)p.r(G)p.r(C)p.[fl2r](U)p.[fl2r](A)p.r(G)p.r(A)p.r(A)p.r(C)p.r(U)p.r(U)}|RNA2{r(A)p.r(A)p.r(G)p.r(U)p.r(U)p.r(C)p.[fl2r](U)p.[fl2r](A)p.r(G)p.r(C)p.r(U)p.r(G)p.r(U)p.r(G)p.r(G)p.r(U)p.r(G)p.r(G)p.r(G)p.r(U)p.r(U)}$$$RNA1{StrandType:ss}|RNA2{StrandType:as}$
target mRNA knockdown: 57%

RNA1{r(G)p.r(A)p.r(A)p.r(G)p.r(A)p.[fl2r](U)p.r(A)p.r(G)p.r(G)p.r(A)p.r(A)p.r(G)p.r(G)p.r(G)p.r(G)p.[fl2r](C)p.[fl2r](U)p.[fl2r](U)p.[fl2r](C)p.r(T)p.r(T)}|RNA2{r(G)p.r(A)p.r(A)p.r(G)p.r(C)p.r(C)p.r(C)p.r(C)p.r(U)p.r(U)p.r(C)p.r(C)p.r(U)p.r(A)p.r(U)p.r(C)p.r(U)p.r(U)p.r(C)p.r(T)p.r(T)}$$$RNA1{StrandType:ss}|RNA2{StrandType:as}$
target mRNA knockdown: 45%

RNA1{r(G)p.r(U)p.r(A)p.r(U)p.r(G)p.r(A)p.r(C)p.r(C)p.r(G)p.r(A)p.r(C)p.r(U)p.r(A)p.r(C)p.r(G)p.r(C)p.r(G)p.r(U)p.r(A)p.r(T)p.r(T)}|RNA2{r(U)p.r(U)p.r(C)p.r(A)p.r(G)p.r(U)p.[una](G)p.r(U)p.r(G)p.r(A)p.r(U)p.r(G)p.r(A)p.r(C)p.r(A)p.r(C)p.r(U)p.r(U)p.r(G)p.r(T)p.r(T)}$$$RNA1{StrandType:ss}|RNA2{StrandType:as}$
target mRNA knockdown: 86%

RNA1{r(A)p.r(A)p.r(C)p.r(U)p.r(U)p.r(C)p.m(U)p.r(G)p.r(G)p.r(G)p.r(A)p.r(G)p.r(C)p.r(C)p.r(U)p.r(C)p.m(C)p.r(A)p.r(A)p.r(T)p.r(T)}|RNA2{r(U)p.m(U)p.r(G)p.r(G)p.r(A)p.r(G)p.r(G)p.r(C)p.r(U)p.r(C)p.r(C)p.m(C)p.r(A)p.r(G)p.r(A)p.r(A)p.r(G)p.r(U)p.r(U)p.r(T)p.r(T)}$$$RNA1{StrandType:ss}|RNA2{StrandType:as}$
target mRNA knockdown: 69%

RNA1{[s4r](C)p.[s4r](G)p.[s4r](U)p.[s4r](A)p.r(C)p.r(G)p.r(C)p.r(G)p.r(G)p.r(A)p.r(A)p.r(U)p.r(A)p.r(C)p.r(U)p.[s4r](U)p.[s4r](C)p.[s4r](G)p.[s4r](A)p.r(T)p.r(T)}|RNA2{[s4r](U)p.[s4r](C)p.r(G)p.r(A)p.r(A)p.r(G)p.r(U)p.r(A)p.r(U)p.r(U)p.r(C)p.r(C)p.r(G)p.r(C)p.r(G)p.r(U)p.r(A)p.[s4r](C)p.[s4r](G)p.r(T)p.r(T)}$$$RNA1{StrandType:ss}|RNA2{StrandType:as}$
target mRNA knockdown: 87.7%

RNA1{r(A)p.r(G)p.r(G)p.r(A)p.r(G)p.r(A)p.r(C)p.r(C)p.r(G)p.[fl2r](U)p.r(G)p.r(A)p.[fl2r](C)p.r(A)p.r(U)p.r(U)p.r(U)p.r(C)p.r(G)p.r(T)p.r(T)}|RNA2{r(C)p.r(G)p.r(A)p.r(A)p.r(A)p.[fl2r](U)p.r(G)p.r(U)p.r(C)p.r(A)p.r(C)p.r(G)p.r(G)p.r(U)p.r(C)p.r(U)p.r(C)p.r(C)p.r(U)p.r(T)p.r(T)}$$$RNA1{StrandType:ss}|RNA2{StrandType:as}$
target mRNA knockdown: 72%

RNA1{r(A)p.r(G)p.r(A)p.r(A)p.r(G)p.[fl2r](U)p.r(A)p.r(C)p.r(C)p.r(A)p.r(G)p.r(G)p.r(A)p.r(G)p.r(G)p.r(C)p.r(G)p.r(U)p.r(U)p.r(T)p.r(T)}|RNA2{r(A)p.r(A)p.r(C)p.r(G)p.r(C)p.r(C)p.r(U)p.r(C)p.r(C)p.[fl2r](U)p.r(G)p.r(G)p.r(U)p.r(A)p.r(C)p.r(U)p.r(U)p.r(C)p.r(U)p.r(T)p.r(T)}$$$RNA1{StrandType:ss}|RNA2{StrandType:as}$
target mRNA knockdown: 60%

RNA1{r(C)p.m(C)p.r(C)p.m(C)p.r(A)p.m(G)p.r(G)p.m(U)p.r(A)p.m(A)p.r(C)p.m(G)p.r(A)p.r(U)p.r(U)p.m(U)p.r(U)p.r(C)p.r(U)p.r(T)p.r(T)}|RNA2{r(A)p.r(G)p.r(A)p.r(A)p.r(A)p.r(A)p.r(U)p.m(C)p.r(G)p.r(U)p.r(U)p.r(A)p.m(C)p.m(C)p.r(U)p.r(G)p.r(G)p.r(G)p.r(G)p.r(T)p.r(T)}$$$RNA1{StrandType:ss}|RNA2{StrandType:as}$
target mRNA knockdown: 69%
